From patent US20260053931A1, “MDM2 TARGETING PROTACS” (THE WISTAR INSTITUTE OF ANATOMY AND BIOLOGY, priority 2023, published 2026)

Assays:
[1] = target: T1, human cereblon (CRBN) complex (Homo sapiens, UniProt Q96SW2); assay: HTRF binding assay for Cereblon (Table 2)
T1 construct: purchased R & D systems
Description: Biochemical assays in 384-well format have established to assess the binding of newly synthesized PROTACs to the appropriate E3 ligase using HTRF technology. In these assays an anti-HIS antibody conjugated to terbium was used as the donor fluor, and either a Cy5 labeled small molecule probe, or a biotinylated peptide that is bound to a streptavidin acceptor.
Cereblon: Recombinant human cereblon (CRBN) complex, including CUL4A, RBX1, DDB1 and CRBN is purchased from R & D systems. This four-member protein complex has an N-terminal HIS tag on the CUL4A subunit. The CRBN complex is diluted in assay buffer containing anti-HIS-Tb Cryptate Gold (CisBio) and is added to low volume 384-well plates. Test compounds in 100% DMSO are added to the plates followed by the Cy5-labeled lenolidamide probe. After 1 hour the HTRF signal is measured on the Envision. Data are normalized to % inhibition. The typical signal-to-noise is 5:1. Bi-functional molecules containing the Cereblon ligands are tested in TABLE 2 (see YX-02-041).

[2] = test system: OVCAR3; assay: Cell death of other cancer cell lines: OVCAR3; format: cell-based; conditions: Homo sapiens, OVCAR-3; OVCAR3, Ovarian
Description: (§1) The PROTACs prepared herein were tested for their use in other cancer cell lines to determine activity in multiple different types of cancer.

[3] = test system: DE1069; assay: Cell death of other cancer cell lines: DE1069; format: cell-based; conditions: DE1069, Sarcoma, Mouse
Description: as §1

[4] = test system: p53-null mouse sarcoma cells; assay: Murine Mdm2+/+ p53-null sarcoma cells, Western blot and MTT; format: cell-based
[5] = In vivo toxicity, C57Bl/6 mice; design: species or system mouse
Description: FIGS. 24A-24E show no overt toxicities from the MDM2-PROTAC YX-02-030 observed in vivo. A-B. A. After C57Bl/6 immunocompetent mice received 15 consecutive intraperitoneal (IP) injections of MDM2-PROTAC (50 mg/kg) or vehicle control treatments, complete blood counts were determined. B. H&E sections of formalin-fixed paraffin-embedded tissues evaluated (B, BM-bone marrow). C-E, Nude mice with subcutaneous tumors of MDA-MB-231 and MDA-MB-436 TNBC cells were administered (IP) MDM2-PROTAC YX-02-030, RG7112D, or vehicle control (50 mg/kg) for 14 consecutive days. C. Mouse weight was measured daily throughout the course of treatment. D. Complete blood counts were determined following 13 consecutive treatments. E. Sections of formalin-fixed paraffin-embedded tissues from mice at time of sacrifice were H&E stained and evaluated. Representative images are shown and scale bars are 200 m (spleen) and 300 μm (bone marrow and intestine). Mean±SD (A, C, D).
Prior to testing YX-02-030 tumors in vivo, mouse liver microsome and pharmacokinetic (PK) studies were performed to determine its stability in vivo. […] Due to its stability in vivo, the effectiveness of YX-02-030 was then evaluated at killing TNBC tumors in mice. […] The toxicity of YX-2-228 was analyzed as compared to both the vehicle and YX-2-30. […]

[6] = In vivo tolerability, nude mice; design: species or system mouse; conditions: YX-02-030 50 mg/kg IP, YX-02-228 30 mg/kg IP, once daily
Description: FIGS. 25A & 25B show the in vivo tolerability tests conducted with the 2 lead Mdm2 PROTACs to evaluate tolerated doses and effects on normal tissues. Nude mice were treated with Mdm2 PROTACs, YX-02-030 (50 mg/kg; IP) and YX-02-228 (30 mg/kg; IP) once daily for 14 days. […] Fresh, surgically-resected tumor from five TNBC patients was obtained, and 80% were from Black/African American patients.
In vivo tolerability tests were conducted with the 2 lead Mdm2 PROTACs to evaluate tolerated doses and effects on normal tissues. Nude mice were treated with Mdm2 PROTACs, YX-02-030 (50 mg/kg; IP) and YX-02-228 (30 mg/kg; IP) once daily for 8 days.

[7] = test system: MDA-MB-231 mammospheres; assay: Area of formed mammospheres, MDA-MB-231; format: cell-based, human; conditions: MDA-MB-231, 3-fold lower concentration than the MDM2 inhibitors, 72 hr
Description: FIGS. 21A-21E show the apoptosis induction of p53-inactivated TNBC cells in 2D and 3D cultures by the MDM2-PROTAC YX-02-030. A-B. Colony formation assays (A. Triplicate, 12 days) and mammosphere formation (B. Triplicate 72 hrs) of MDA-MB-231 and MDA-MB-436 cells in the presence of the indicated compounds or DMSO control (−); representative pictures shown. C-E. Formed mammospheres of MDA-MB-231 and MDA-MB-436 cells were treated with the compounds indicated or DMSO control (−), and area (C. n=10 mammospheres, relative to pre-treatment area, 72 hr), real-time imaging (IncuCyte) and quantification of Caspase-3/7 activity (D. n=4-5 wells/compound), and survival/ATP assays (E. Quadruplicate, 72 hr) were performed; representative images shown; scale bar 300 m. Mean±SEM (A-C and E). For A, *P<0.0001 and **P<0.0001, comparing 1 M and 2 M PROTAC, respectively, to control compounds and DMSO vehicle control. For B, *P<0.0046, **P<0.0001, and ***P<0.0001, comparing 0.5 M, 1 M, and 2 M PROTAC, respectively, to control compounds and DMSO vehicle control. For C, *P<0.0001 and **P<0.0001, comparing 2 M and 4 M/6 M PROTAC, respectively, to control compounds and DMSO vehicle control. […]
These were then evaluated in 3D culture as to when the YX-02-030 was effective at preventing TNBC cell mammosphere formation and eliminating already formed mammospheres. […]

[8] = test system: non-cancerous cells; assay: Western blot and MTT assay, non-cancerous cells
[9] = test system: Ramos; assay: Cell death of other cancer cell lines: Ramos; format: cell-based; conditions: Homo sapiens, Burkitt lymphoma
Description: as §1

T1 sequence (Q96SW2 whole entry): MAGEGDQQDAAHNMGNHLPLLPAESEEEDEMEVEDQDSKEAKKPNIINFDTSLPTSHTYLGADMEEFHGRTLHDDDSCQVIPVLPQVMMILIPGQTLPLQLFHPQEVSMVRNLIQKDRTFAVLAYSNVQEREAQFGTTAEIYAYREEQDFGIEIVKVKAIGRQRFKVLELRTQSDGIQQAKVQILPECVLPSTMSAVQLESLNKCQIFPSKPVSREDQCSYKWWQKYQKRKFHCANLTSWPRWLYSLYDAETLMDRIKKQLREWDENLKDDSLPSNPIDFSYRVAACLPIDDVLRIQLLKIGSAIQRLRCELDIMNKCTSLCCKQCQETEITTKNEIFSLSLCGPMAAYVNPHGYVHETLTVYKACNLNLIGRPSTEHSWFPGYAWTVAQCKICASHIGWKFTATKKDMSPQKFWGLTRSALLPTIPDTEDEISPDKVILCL
T1 sequence (Q16531 whole entry partner): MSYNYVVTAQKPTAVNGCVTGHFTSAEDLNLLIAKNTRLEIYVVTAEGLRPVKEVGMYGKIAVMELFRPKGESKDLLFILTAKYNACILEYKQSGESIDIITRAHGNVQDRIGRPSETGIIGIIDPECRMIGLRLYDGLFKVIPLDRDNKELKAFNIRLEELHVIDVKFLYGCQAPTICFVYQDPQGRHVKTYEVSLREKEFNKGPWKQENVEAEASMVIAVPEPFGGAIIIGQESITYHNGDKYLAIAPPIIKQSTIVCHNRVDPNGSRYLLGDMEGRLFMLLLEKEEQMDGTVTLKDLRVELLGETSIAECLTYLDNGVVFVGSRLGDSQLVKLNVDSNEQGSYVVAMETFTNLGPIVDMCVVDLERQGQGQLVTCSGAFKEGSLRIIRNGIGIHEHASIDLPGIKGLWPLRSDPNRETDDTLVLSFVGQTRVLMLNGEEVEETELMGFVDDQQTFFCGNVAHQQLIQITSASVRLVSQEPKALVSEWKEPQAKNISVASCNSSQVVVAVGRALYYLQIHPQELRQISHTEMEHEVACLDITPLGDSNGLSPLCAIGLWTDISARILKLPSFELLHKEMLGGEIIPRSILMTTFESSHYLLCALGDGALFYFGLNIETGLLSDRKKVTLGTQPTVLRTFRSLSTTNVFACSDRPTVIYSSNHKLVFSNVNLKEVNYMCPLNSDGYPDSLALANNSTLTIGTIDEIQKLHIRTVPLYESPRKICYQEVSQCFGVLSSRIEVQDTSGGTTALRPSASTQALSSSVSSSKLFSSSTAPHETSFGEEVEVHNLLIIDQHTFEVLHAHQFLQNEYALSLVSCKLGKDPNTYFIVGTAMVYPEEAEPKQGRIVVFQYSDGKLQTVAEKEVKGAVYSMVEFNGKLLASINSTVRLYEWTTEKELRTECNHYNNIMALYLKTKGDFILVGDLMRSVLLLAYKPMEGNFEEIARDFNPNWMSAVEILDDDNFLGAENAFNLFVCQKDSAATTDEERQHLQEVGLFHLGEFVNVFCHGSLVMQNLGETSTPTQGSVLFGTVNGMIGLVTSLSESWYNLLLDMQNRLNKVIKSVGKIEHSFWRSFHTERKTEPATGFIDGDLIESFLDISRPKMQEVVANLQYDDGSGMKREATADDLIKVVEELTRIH
T1 sequence (Q13619 whole entry partner): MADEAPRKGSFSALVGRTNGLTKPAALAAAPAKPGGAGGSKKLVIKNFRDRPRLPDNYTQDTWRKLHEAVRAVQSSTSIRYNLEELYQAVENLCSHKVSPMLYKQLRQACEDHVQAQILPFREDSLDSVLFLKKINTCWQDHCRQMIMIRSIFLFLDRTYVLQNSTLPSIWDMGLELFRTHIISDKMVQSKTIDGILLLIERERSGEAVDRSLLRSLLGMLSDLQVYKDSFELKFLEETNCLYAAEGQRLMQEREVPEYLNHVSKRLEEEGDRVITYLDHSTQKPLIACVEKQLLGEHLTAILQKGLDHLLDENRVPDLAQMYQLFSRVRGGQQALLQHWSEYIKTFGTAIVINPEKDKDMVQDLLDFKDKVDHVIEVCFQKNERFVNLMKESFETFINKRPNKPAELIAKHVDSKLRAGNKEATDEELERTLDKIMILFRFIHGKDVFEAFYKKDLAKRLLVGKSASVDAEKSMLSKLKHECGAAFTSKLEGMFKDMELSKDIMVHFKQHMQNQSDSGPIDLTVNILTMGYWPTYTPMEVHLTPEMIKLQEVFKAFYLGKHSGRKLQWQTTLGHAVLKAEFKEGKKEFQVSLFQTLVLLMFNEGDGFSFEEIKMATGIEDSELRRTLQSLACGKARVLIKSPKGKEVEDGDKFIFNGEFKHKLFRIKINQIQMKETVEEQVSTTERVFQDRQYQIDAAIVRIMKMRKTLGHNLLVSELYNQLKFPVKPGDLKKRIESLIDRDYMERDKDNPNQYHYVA
T1 sequence (P62877 whole entry partner): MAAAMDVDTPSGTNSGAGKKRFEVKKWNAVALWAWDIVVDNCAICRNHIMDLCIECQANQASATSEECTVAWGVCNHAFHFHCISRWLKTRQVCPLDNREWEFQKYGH

Row | Structure (SMILES) | IC50 [1] [µM] | IC50 [2] [µM] | IC50 [3] [µM] | p73 and apoptosis (cleaved caspase 3) ([4]; Western blots after 24 hrs) | killing of p53-null sarcoma cells ([4]; increasing concentrations, MTT assay, 48 hrs) | overt toxicity ([5]; C57Bl/6 mice and immune-deficient mice of the xenograft experiments, 50 mg/kg IP) | tolerability ([5]; C57Bl/6 mice, 30 mg/kg IP, 2× daily) | blood counts [6] | body weight [6] | clinical observations for spleen and bone marrow [6] | reduction of mammosphere area [7] [%] | sensitivity of non-cancerous cells [8] | IC50 [9] [µM]
1 | CCOc1cc(C(C)(C)C)ccc1C1=N[C@](C)(c2ccc(Cl)cc2)[C@](C)(c2ccc(Cl)cc2)N1C(=O)N1CCN(CC(=O)NCCOCCOCCOCC(=O)N[C@H](C(=O)N2C[C@H](O)C[C@H]2C(=O)NCc2ccc(-c3scnc3C)cc2)C(C)(C)C)CC1 (racemic) [YX-02-030] | > 10 | 4.5 | 6.1 | stabilized p73 and induced apoptosis | killed p53-null sarcoma cells | no signs of overt toxicity | well tolerated | no significant change | no significant change in body weight | no adverse clinical observations | 49.5 | resistant | 3.1
2 | CCOc1cc(C(C)(C)C)ccc1C1=N[C@](C)(c2ccc(Cl)cc2)[C@](C)(c2ccc(Cl)cc2)N1C(=O)N1CCN(CC(=O)NCCCNC(=O)COc2ccc3c(c2)CN(C(=O)[C@H](NC(=O)[C@@H](C)NC)C(C)(C)C)[C@@H](C(=O)N[C@H]2CCCc4ccccc42)C3)CC1 [YX-02-228, (R)-7-(2-((3-(2-(4-((4R,5S)-2-(4-(tert-butyl)-2-ethoxyphenyl)-4,5-bis(4-chlorophenyl)-4,5-dimethyl-4,5-dihydro-1H-imidazole-1-carbonyl)piperazin-1-yl)acetamido)propyl)amino)-2-oxoethoxy)-2-((R)-3,3-dimethyl-2-((R)-2-(methylamino)propanamido)butanoyl)-N-((S)-1,2,3,4-tetrahydronaphthalen-1-yl)-1,2,3,4-tetrahydroisoquinoline-3-carboxamide] | > 10 |  |  |  |  |  |  | no significant change | no significant change in body weight | no adverse clinical observations |  |  | 5.5
